The experiment concerns heterotopic GBM flank tumor model. The experiment is described as follows: Heterotopic xenograft flank tumor treatment with peptide. It is filed as in vivo, nude mice. More on the design: dose or concentration left out as unconfirmed. Conditions: flank tumors of mice intravenously administered peptide; compared with scrambled control polypeptide; FIG. 2. As to the method: In this Example, we tested the efficacy of the SBK2 peptide in treating primary human brain tumor xenografts. The studies were performed using an imaging dose of the SBK2 peptide probe in 3 sequential injections that were two days apart in a heterotopic GBM flank tumor model.
Human Gli36Δ5 glioblastoma cells constitutively over-express the vIII mutant forms of the EGFR gene (Tyminski E, Leroy S, Terada K, Finkelstein D M, Hyatt J L, Danks M K, Potter P M, Saeki Y, Chiocca E A (2005) Brain tumor oncolysis with replication-conditional herpes simplex virus type 1 expressing the prodrug-activating genes, CYP2B1 and secreted human intestinal carboxylesterase, in combination with cyclophosphamide and irinotecan. Cancer Res 65:6850-6857). Human LN-229 glioblastoma cells were obtained from American Type Culture Collection, Manassas, Va. Gli36Δ5 or LN-229 cells were harvested for flank implantation by trypsinization. […]
On each peptide treatment day, flank tumors were imaged using the Maestro FLEX In Vivo Imaging System. […] Tumors were measured through the skin using calipers; length, width and height of the tumors were recorded on each treatment day. On the day the animals were sacrificed, tumors were measured before removal (through the skin) and after removal.

The results in this text go back to patent US10632179B2, “Methods and compositions for treating cancer” (Case Western Reserve University, priority 2013, dated 2020).

With GEGDDFNWEQVNTLTKPTSD [SBK2], the “reduction in tumor volume” value stood at 50% and the “reduction in weight (flank tumor)” value was found to be 35%.
